Series [1] in a line: activity coefficient (dimensionless); of the first substance listed, at infinite dilution; xn = mol fraction of the nth substance listed. To be noted: Liquid, x1 = 0.
For series [2] the following is noted: Liquid, Closed cell (Static) method.

Each structure is given as a SMILES string. Numbers after ± are expanded uncertainties.

What is called vapor or sublimation pressure is the pressure of vapour in equilibrium with the condensed phase.

`CCCCCC` [hexane] + C1CCOCC1: the activity coefficient turned out to be 1.76 ± 0.07 in series [1] (290 K, Chromatography); 1.71 ± 0.07 in series [1] (299.89 K, Chromatography); 1.67 ± 0.07 in series [1] (309.98 K, Chromatography); 1.65 ± 0.07 in series [1] (319.99 K, Chromatography); 1.61 ± 0.06 in series [1] (330.02 K, Chromatography).
With `COC` [dimethyl ether] + C1CCOCC1, the activity coefficient in series [1] (250 K, Chromatography) came to 1.29 ± 0.04; in series [1] (270.07 K, Chromatography) it was 1.26 ± 0.04; in series [1] (289.98 K, Chromatography) it was 1.26 ± 0.04; in series [1] (309.98 K, Chromatography) it was 1.26 ± 0.04; in series [1] (330 K, Chromatography) it was 1.26 ± 0.04.
As to `CCCl` [chloroethane] + C1CCOCC1, the activity coefficient in series [1] (250 K, Chromatography) was determined as 0.9 ± 0.03; in series [1] (270.07 K, Chromatography), 0.89 ± 0.03; in series [1] (289.98 K, Chromatography), 0.89 ± 0.03; in series [1] (309.98 K, Chromatography), 0.94 ± 0.03; in series [1] (330 K, Chromatography) it was 0.98 ± 0.03.
Take `CCC` [propane] + C1CCOCC1: the activity coefficient stood at 2.08 ± 0.09 in series [1] (250.06 K, Chromatography); 1.98 ± 0.09 in series [1] (270.12 K, Chromatography); 1.9 ± 0.08 in series [1] (289.97 K, Chromatography); 1.84 ± 0.08 in series [1] (309.98 K, Chromatography); 1.79 ± 0.08 in series [1] (329.97 K, Chromatography).
Take `C/C=C\C` [(Z)-2-butene] + C1CCOCC1: the activity coefficient in series [1] (250 K, Chromatography) is 1.36 ± 0.05; in series [1] (270.07 K, Chromatography), 1.33 ± 0.05; in series [1] (289.98 K, Chromatography), 1.32 ± 0.05; in series [1] (309.98 K, Chromatography), 1.31 ± 0.05; in series [1] (330 K, Chromatography), 1.32 ± 0.05.
`CC(F)F` [1,1-difluoroethane] + C1CCOCC1: the activity coefficient in series [1] (250.06 K, Chromatography) came to 1.57 ± 0.06; in series [1] (270.12 K, Chromatography), 1.64 ± 0.07; in series [1] (289.97 K, Chromatography), 1.67 ± 0.07; in series [1] (309.98 K, Chromatography) it was 1.69 ± 0.07; in series [1] (329.97 K, Chromatography), 1.66 ± 0.07.
Turning to `C=CC` [propene] + C1CCOCC1, the activity coefficient was 1.42 ± 0.05 in series [1] (250.06 K, Chromatography); 1.42 ± 0.05 in series [1] (270.12 K, Chromatography); 1.43 ± 0.05 in series [1] (289.97 K, Chromatography); 1.44 ± 0.05 in series [1] (309.98 K, Chromatography); 1.44 ± 0.05 in series [1] (329.97 K, Chromatography).
In the case of `C=CCC` [1-butene] + C1CCOCC1, the activity coefficient was found to be 1.39 ± 0.01 in series [1] (250.06 K, Gas Stripping Method); 1.39 ± 0.01 in series [1] (270.12 K, Gas Stripping Method); 1.38 ± 0.01 in series [1] (289.97 K, Gas Stripping Method); 1.38 ± 0.01 in series [1] (309.98 K, Gas Stripping Method); 1.38 ± 0.01 in series [1] (329.97 K, Gas Stripping Method).
On to `CCCC` [butane] + C1CCOCC1, for which the activity coefficient in series [1] (250.06 K, Chromatography) turned out to be 2.04 ± 0.09; in series [1] (270.12 K, Chromatography), 1.94 ± 0.09; in series [1] (289.97 K, Chromatography), 1.85 ± 0.08; in series [1] (309.98 K, Chromatography), 1.78 ± 0.08; in series [1] (329.97 K, Chromatography), 1.72 ± 0.07.
On the same counts, the results for `C=C(C)C` [2-methylpropene] + C1CCOCC1 are 1.39 ± 0.05, 1.39 ± 0.05, 1.38 ± 0.05, 1.38 ± 0.05 and 1.37 ± 0.05.
Consider `C1CCOCC1` [tetrahydropyran], for which the “vapor or sublimation pressure” value in series [2] (257.96 K) was 0.98 ± 0.01 kPa; in series [2] (260.07 K), 1.13 ± 0.01 kPa; in series [2] (270.28 K), 2.16 ± 0.02 kPa; in series [2] (279.82 K), 3.7 ± 0.02 kPa; in series [2] (289.94 K) it was 6.28 ± 0.02 kPa; in series [2] (290 K), 6.3 ± 0.02 kPa. Besides, the “vapor or sublimation pressure” value came out at 10.23 ± 0.04 kPa in series [2] (300.01 K); 40 ± 0.1 kPa in series [2] (332.98 K); 53.33 ± 0.12 kPa in series [2] (341.09 K); 66.66 ± 0.15 kPa in series [2] (347.72 K); 79.99 ± 0.18 kPa in series [2] (353.38 K); 93.33 ± 0.21 kPa in series [2] (358.37 K). Moreover, the “vapor or sublimation pressure” value in series [2] (360.22 K) is recorded as 98.66 ± 0.22 kPa.
Regarding `CC(C)C` [2-methylpropane] + C1CCOCC1, the activity coefficient in series [1] (250.06 K, Chromatography) is 2.14 ± 0.1; in series [1] (270.12 K, Chromatography) it was 2.04 ± 0.09; in series [1] (289.97 K, Chromatography), 1.94 ± 0.09; in series [1] (309.98 K, Chromatography), 1.88 ± 0.08; in series [1] (329.97 K, Chromatography), 1.82 ± 0.08.
On the same counts, the results for `C/C=C/C` [(E)-2-butene] + C1CCOCC1 are 1.43 ± 0.05, 1.41 ± 0.05, 1.4 ± 0.05, 1.4 ± 0.05 and 1.4 ± 0.05.
On the same counts, the results for `C=CC=C` [1,3-butadiene] + C1CCOCC1 are 0.95 ± 0.03, 0.97 ± 0.03, 1.01 ± 0.03, 1.05 ± 0.03 and 1.09 ± 0.03.

The values above are taken from the NIST ThermoML archive (doi:10.1021/je700270d).
